Source: patent publication US8586591B2, “Aminopyrazine derivative and medicine” (Nippon Shinyaku Co., Ltd., priority 2009, dated 2013)
Structures can show the parent of a compound that is named as a salt.

Columns and labels:
JAK3 tyrosine kinase = biological target: T1, JAK3 tyrosine kinase (Homo sapiens, UniProt P52333); test: Test 1: inhibitory activity to JAK3 tyrosine kinase (ELISA); format: biochemical; conditions: 25 μM ATP in substrate solution, 30° C. for 1 hour, n=2
T1 construct: purchased Carnabioscience Co
T1 sequence (P52333 1-1124): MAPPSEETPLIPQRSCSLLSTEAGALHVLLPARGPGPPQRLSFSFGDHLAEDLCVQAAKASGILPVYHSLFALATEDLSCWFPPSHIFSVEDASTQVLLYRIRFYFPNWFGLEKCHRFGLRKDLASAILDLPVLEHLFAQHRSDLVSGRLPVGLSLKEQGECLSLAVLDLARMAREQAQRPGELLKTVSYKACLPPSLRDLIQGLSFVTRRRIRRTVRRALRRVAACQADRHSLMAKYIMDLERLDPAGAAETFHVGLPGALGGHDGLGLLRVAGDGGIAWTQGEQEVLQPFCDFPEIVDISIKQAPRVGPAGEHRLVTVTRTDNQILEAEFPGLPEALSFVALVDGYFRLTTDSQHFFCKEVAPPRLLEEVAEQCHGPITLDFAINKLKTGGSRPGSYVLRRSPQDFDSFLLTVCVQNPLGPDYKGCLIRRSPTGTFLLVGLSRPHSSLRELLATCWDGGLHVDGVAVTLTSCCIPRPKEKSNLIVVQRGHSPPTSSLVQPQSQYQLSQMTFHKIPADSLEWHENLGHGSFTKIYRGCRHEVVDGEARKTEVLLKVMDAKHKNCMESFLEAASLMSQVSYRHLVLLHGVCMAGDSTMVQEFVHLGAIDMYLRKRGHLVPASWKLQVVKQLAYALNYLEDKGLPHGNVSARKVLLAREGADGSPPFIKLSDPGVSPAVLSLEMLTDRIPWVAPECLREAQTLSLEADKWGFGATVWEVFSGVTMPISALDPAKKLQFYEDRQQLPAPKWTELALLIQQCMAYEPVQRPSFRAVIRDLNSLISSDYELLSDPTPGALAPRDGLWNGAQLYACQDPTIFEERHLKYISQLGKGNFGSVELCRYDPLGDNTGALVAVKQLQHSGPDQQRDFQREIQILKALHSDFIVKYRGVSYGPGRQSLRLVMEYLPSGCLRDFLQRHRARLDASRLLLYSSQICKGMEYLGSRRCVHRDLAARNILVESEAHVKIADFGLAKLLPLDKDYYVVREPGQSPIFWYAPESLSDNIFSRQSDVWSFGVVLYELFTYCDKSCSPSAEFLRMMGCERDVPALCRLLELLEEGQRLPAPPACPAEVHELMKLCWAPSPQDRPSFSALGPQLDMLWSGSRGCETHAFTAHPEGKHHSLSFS
Method in brief: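 ELISA of JAK3 kinase activity with absorbance read at 450 nm. Compounds were tested from DMSO dilution series at 100-fold the measurement concentrations (1000–0.01 μM), diluted up to 20 times in assay buffer, against a DMSO negative control. IC50 was estimated by non-linear regression of absorbance.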

JAK2 tyrosine kinase = biological target: T2, JAK2 tyrosine kinase (Homo sapiens, UniProt O60674); test: Test 1: inhibitory activity to JAK2 tyrosine kinase (ELISA); format: biochemical; conditions: 25 μM ATP in substrate solution, 30° C. for 1 hour, n=2
T2 construct: purchased Carnabioscience Co
T2 sequence (O60674 whole entry): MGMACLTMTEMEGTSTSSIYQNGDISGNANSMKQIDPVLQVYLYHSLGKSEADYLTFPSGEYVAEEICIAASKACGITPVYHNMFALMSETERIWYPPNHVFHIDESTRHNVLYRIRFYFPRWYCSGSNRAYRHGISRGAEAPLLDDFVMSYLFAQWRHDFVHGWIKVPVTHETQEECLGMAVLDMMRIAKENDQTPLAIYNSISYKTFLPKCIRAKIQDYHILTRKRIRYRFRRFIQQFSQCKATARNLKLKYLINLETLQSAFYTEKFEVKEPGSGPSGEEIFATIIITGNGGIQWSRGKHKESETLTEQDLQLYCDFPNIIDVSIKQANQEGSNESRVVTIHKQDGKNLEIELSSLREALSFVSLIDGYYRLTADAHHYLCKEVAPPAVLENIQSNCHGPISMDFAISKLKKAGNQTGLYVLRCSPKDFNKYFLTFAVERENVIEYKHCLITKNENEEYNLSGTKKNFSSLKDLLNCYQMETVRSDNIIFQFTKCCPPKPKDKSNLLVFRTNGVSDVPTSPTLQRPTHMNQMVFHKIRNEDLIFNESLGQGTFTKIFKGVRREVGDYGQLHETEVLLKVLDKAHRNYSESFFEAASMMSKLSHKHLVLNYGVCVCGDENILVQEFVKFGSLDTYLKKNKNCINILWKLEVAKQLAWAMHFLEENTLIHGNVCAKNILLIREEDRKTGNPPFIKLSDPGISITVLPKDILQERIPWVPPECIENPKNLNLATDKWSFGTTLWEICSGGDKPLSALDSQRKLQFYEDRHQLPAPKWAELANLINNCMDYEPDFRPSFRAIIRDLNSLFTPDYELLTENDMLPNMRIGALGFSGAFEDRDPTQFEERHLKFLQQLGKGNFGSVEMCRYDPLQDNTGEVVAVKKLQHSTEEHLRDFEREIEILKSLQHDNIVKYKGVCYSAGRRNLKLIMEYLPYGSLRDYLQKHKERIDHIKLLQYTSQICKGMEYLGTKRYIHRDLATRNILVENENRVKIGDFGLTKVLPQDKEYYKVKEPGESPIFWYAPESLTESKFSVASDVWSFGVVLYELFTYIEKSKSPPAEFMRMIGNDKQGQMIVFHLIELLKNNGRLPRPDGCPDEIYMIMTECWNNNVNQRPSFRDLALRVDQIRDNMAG
Method in brief: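 This is an ELISA read at A450 (HRP anti-phosphotyrosine antibody, TMB) of biotin-peptide phosphorylation captured on streptavidin. Enzyme solution was 0.75 nM JAK2, and the substrate solution was 625 nM peptide with 25 μM ATP in Tris pH 7.5 buffer. The reaction ran 1 h at 30 °C with compounds in duplicate, and IC50 was fitted non-linearly.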

SMILES | IC50 (JAK3 tyrosine kinase) | IC50 (JAK2 tyrosine kinase)
COCCNC(=O)C1CN(c2cc(Nc3cnccn3)nc(N[C@@H](C)c3ccc(F)cc3)n2)C1 [Example 194, (S)-1-{2-[1-(4-Fluorophenyl)ethylamino]-6-(pyrazin-2-ylamino)pyrimidin-4-yl}-N-(2-methoxyethyl) azetidine-3-carboxamide] | 84 nM | 0.79 nM
C[C@H](Nc1nc(Nc2cnccn2)cc(N2CC(NS(C)(=O)=O)C2)n1)c1ccc(F)cc1 [Example 177, (S)—N-(1-{2-[1-(4-Fluorophenyl)ethylamino]-6-(pyrazin-2-ylamino)pyrimidin-4-yl}azetidin-3-yl)methanesulfonamide] | 87 nM | 0.74 nM
C[C@H](Nc1nc(Nc2cnccn2)cc(O[C@H]2CCCC[C@@H]2O)n1)c1ccc(F)cc1 [Example 101, (1S,2S)-2-{2-[(S)-1-(4-Fluorophenyl)ethylamino]-6-(pyrazin-2-ylamino)pyrimidin-4-yloxy}cyclohexanol hydrochloride] | 600 nM | 11 nM
C[C@H](Nc1cc(C2CCN(S(C)(=O)=O)CC2)cc(Nc2cnccn2)n1)c1ccc(F)cc1 [Example 215, (S)—N^2-[1-(4-Fluorophenyl)ethyl]-4-[1-(methanesulfonyl)piperidin-4-yl]-N^6-(pyrazin-2-yl)pyridine-2,6-diamine] | 210 nM | 2.3 nM
C[C@H](Nc1nc(Nc2cnccn2)cc(N(CCO)CCO)n1)c1ccc(F)cc1 [Example 61, (S)-2-({2-[1-(4-Fluorophenyl)ethylamino]-6-(pyrazin-2-ylamino)pyrimidin-4-yl}(2-hydroxyethyl)amino)ethan-1-ol hydrochloride] | 150 nM | 6 nM
C[C@H](Nc1cc(-c2ccnn2C)cc(Nc2cnccn2)n1)c1ccc(F)cc1 [Example 47, (S)—N^2-[1-(4-Fluorophenyl)ethyl]-4-(1-methyl-1H-pyrazol-5-yl)-N^6-(pyrazin-2-yl)pyridine-2,6-diamine] | 1300 nM | 12 nM
CC(C)[C@@H](CO)Nc1cc(Nc2cnccn2)nc(N[C@@H](C)c2ccc(F)cc2)n1 [Example 99, (S)-2-{2-[(S)-1-(4-Fluorophenyl)ethylamino]-6-(pyrazin-2-ylamino)pyrimidin-4-ylamino}-3-methylbutan-1-ol hydrochloride] | 200 nM | 2.4 nM
C[C@H](Nc1nc(NCCNS(C)(=O)=O)cc(Nc2cnccn2)n1)c1ccc(F)cc1 [Example 77, (S)—N-(2-{2-[1-(4-Fluorophenyl)ethylamino]-6-(pyrazin-2-ylamino)pyrimidin-4-ylamino}ethyl)methanesulfonamide hydrochloride] | 37 nM | 0.73 nM
CNC(=O)C1CN(c2cc(Nc3cnccn3)nc(N[C@@H](C)c3ccc(F)cc3)n2)C1 [Example 174] | 47 nM | 0.99 nM
C[C@H](Nc1nc(Nc2cnccn2)cc(N2C[C@H](O)[C@@H](O)C2)n1)c1ccc(F)cc1 [Example 110, (3S,4S)-1-{2-[(S)-1-(4-Fluorophenyl)ethylamino]-6-(pyrazin-2-ylamino)pyrimidin-4-yl}pyrrolidin-3,4-diol] | 44 nM | 0.67 nM
C[C@H](Nc1nc(Nc2cnccn2)cc(N2CC(F)C2)n1)c1ccc(F)cc1 [Example 44, (S)-6-(3-Fluoroazetidin-1-yl)-N^2-[1-(4-fluorophenyl)ethyl]-N^4-(pyrazin-2-yl)pyrimidine-2,4-diamine] | 140 nM | 2.1 nM
C[C@H](Nc1nc(Nc2cnccn2)cc(N2CCC(N)C2)n1)c1ccc(F)cc1 (stereo partly drawn) [Example 59, 6-(3-Aminopyrrolidin-1-yl)-N^2-[(S)-1-(4-fluorophenyl)ethyl]-N^4-(pyrazin-2-yl)pyrimidine-2,4-diamine] | 60 nM | 1.7 nM
C[C@H](Nc1nc(Nc2cnccn2)cc(N2CCN(S(=O)(=O)c3ccccc3)CC2)n1)c1ccc(F)cc1 [Example 114, (S)—N^2-[1-(4-Fluorophenyl)ethyl]-6-[4-(phenylsulfonyl)piperazin-1-yl]-N^4-(pyrazin-2-yl)pyrimidine-2,4-diamine hydrochloride] | 66 nM | 4.8 nM
C[C@H](Nc1nc(Nc2cnccn2)cc(-c2cncc(C(N)=O)c2)n1)c1ccc(F)cc1 [Example 84, (S)-5-{2-[1-(4-Fluorophenyl)ethylamino]-6-(pyrazin-2-ylamino)pyrimidin-4-yl}nicotinamide] | 170 nM | 2 nM
C[C@H](Nc1cc(N2CCC(O)(CO)CC2)cc(Nc2cnccn2)n1)c1ccc(F)cc1 [Example 125, (S)-1-{2-[1-(4-Fluorophenyl)ethylamino]-6-(pyrazin-2-ylamino)pyridin-4-yl}-4-(hydroxymethyl)piperidin-4-ol] | 130 nM | 1.6 nM
CCn1cc(-c2cc(Nc3cnccn3)nc(N[C@@H](C)c3ccc(F)cc3)c2)cn1 [Example 46, (S)-4-(1-Ethyl-1H-pyrazol-4-yl)-N^2-[1-(4-fluorophenyl)ethyl]-N^6-(pyrazin-2-yl)pyridine-2,6-diamine] | 93 nM | 3.7 nM
C[C@H](Nc1nc(Nc2cnccn2)cc(-c2ccnc(F)c2)n1)c1ccc(F)cc1 [Example 93, (S)—N^2-[1-(4-Fluorophenyl)ethyl]-6-(2-fluoropyridin-4-yl)-N^4-(pyrazin-2-yl)pyrimidine-2,4-diamine] | 220 nM | 3 nM
Cc1cn(-c2cc(Nc3cnccn3)nc(N[C@@H](C)c3ccc(F)cc3)n2)cn1 [Example 118, (S)—N^2-[1-(4-Fluorophenyl)ethyl]-6-(4-methyl-1H-imidazol-1-yl)-N^4-(pyrazin-2-yl)pyrimidine-2,4-diamine hydrochloride] | 290 nM | 1.6 nM
C[C@H](Nc1nc(Nc2cnccn2)cc(N2CCC2)n1)c1ccc(F)cc1 [Example 43, (S)-6-(Azetidin-1-yl)-N^2-[1-(4-fluorophenyl)ethyl]-N^4-(pyrazin-2-yl)pyrimidine-2,4-diamine] | 130 nM | 1.2 nM
CCCCNC(=O)c1cc(Nc2cnccn2)nc(N[C@@H](C)c2ccc(F)cc2)c1 [Example 169, (S)—N-Butyl-2-[1-(4-fluorophenyl)ethylamino]-6-(pyrazin-2-ylamino) isonicotinamide] | 500 nM | 3 nM
CC(=O)NC1CN(c2cc(Nc3cnccn3)nc(N[C@@H](C)c3ccc(F)cc3)n2)C1 [Example 42, (S)—N-(1-{2-[1-(4-Fluorophenyl)ethylamino]-6-(pyrazin-2-ylamino)pyrimidin-4-yl}azetidin-3-yl)acetamide] | 66 nM | 1 nM
C[C@H](Nc1cc(N2CC(F)(F)C2)cc(Nc2cnccn2)n1)c1ccc(F)cc1 [Example 207, (S)-4-(3,3-Difluoroazetidin-1-yl)-N^2-[1-(4-fluorophenyl)ethyl]-N^6-(pyrazin-2-yl)pyridine-2,6-diamine hydrochloride] | 300 nM | 7 nM
C[C@H](Nc1nc(NCC2CCCO2)cc(Nc2cnccn2)n1)c1ccc(F)cc1 (stereo partly drawn) [Example 68, N^2-[(S)-1-(4-Fluorophenyl)ethyl]-N^4-(pyrazin-2-yl)-N^6-[(tetra hydrofuran-2-yl)methyl]pyrimidine-2,4,6-triamine] | 34 nM | 1.5 nM
C[C@H](Nc1nc(Nc2cnccn2)cc(-c2nccs2)n1)c1ccc(F)cc1 [Example 54, (S)—N^2-[1-(4-Fluorophenyl)ethyl]-N^4-(pyrazin-2-yl)-6-(thiazol-2-yl)pyrimidine-2,4-diamine] | 1800 nM | 22 nM
C[C@H](Nc1nc(Nc2cnccn2)cc(N2CC(O)(C(F)(F)F)C2)n1)c1ccc(F)cc1 [Example 192, (S)-1-{2-[1-(4-Fluorophenyl)ethylamino]-6-(pyrazin-2-ylamino)pyrimidin-4-yl}-3-(trifluoromethyl)azetidin-3-ol hydrochloride] | 120 nM | 1.9 nM
